Measured values published in US11571423B2, “Small molecule modulators of human sting” (Curadev Pharma Limited, priority 2017, dated 2023).
Counter-ions that a name gives are not always drawn.

What was measured:
hSTING(R232) = hSTING(R232) (Homo sapiens, UniProt Q86WV6, H232R); assay: Luciferase reporter assay in HEK293T-hSTING-Luciferase cells, R232 (wild type) human STING; type: cell-based; conditions: 20 hr stimulation, read-out: R232 human activity (EC50 range)
Summary of the method: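 Clonal HEK293T cells stably expressing STING from a pUNO-1 plasmid plus an ISRE/ISG54-driven secreted luciferase reporter; 5×10^5 cells stimulated with compound for 20 hr. Supernatant luciferase read by luminescence, giving fold-induction over baseline and EC50.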

hSTING(HAQ) = hSTING(HAQ) (Homo sapiens, UniProt Q86WV6, G230A/H232R/R293Q/R71H); assay: Luciferase reporter assay in HEK293T-hSTING-Luciferase cells, HAQ polymorph; type: cell-based; conditions: HAQ polymorph of human STING, EC50 range class
Chain of hSTING(HAQ) (Q86WV6 whole entry R71H/G230A/H232R/R293Q): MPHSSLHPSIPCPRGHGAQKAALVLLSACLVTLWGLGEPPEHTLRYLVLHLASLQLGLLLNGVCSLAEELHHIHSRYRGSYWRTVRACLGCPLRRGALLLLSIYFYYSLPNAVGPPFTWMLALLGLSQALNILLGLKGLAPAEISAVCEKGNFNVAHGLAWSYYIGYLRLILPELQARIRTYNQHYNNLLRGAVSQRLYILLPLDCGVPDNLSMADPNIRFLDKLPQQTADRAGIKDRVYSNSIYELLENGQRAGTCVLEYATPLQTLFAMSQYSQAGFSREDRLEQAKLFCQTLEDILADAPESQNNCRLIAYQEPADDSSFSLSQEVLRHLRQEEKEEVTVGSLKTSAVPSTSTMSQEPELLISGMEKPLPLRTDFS
Text: (§1) Stable Cell Line Generation • a) Stable STING expressing cells—Stable HEK293T STING-expressing cell lines were generated using plasmids purchased from Invivogen, CA, USA, that contain STING cDNA cloned into the pUNO-1 vector under hEF1-HTLV promoter and containing the Blasticidin selection cassette. The plasmids hSTING(R232), hSTING(H232), hSTING(HAQ) were directly procured from Invivogen while hSTING (AQ) and hSTING (Q) were derived from hSTING(HAQ) and hSTING (R232) plasmids respectively by using a PCR based site directed mutagenesis method. These vectors were individually transfected into HEK293T cells using Lipofectamine (Invitrogen) and transfected cells were selected under Blasticidin selection. These transfected cells were further subjected to clonal selection using the limiting dilution method to obtain clonally pure populations of HEK cells transfected with each of the above mentioned human STING variants. Only those clones were selected in which ligand independent activation of STING was minimal. • b) Stable Luciferase reporter gene expressing cells—Stable HEK293T Luciferase reporter gene expressing cell lines were generated using pCDNA4 plasmids under an IRF-inducible promoter. This promoter is comprised of five tandem interferon-stimulated response elements (ISRE) fused to an ISG54 minimal promoter. This vector was transfected into HEK293T cells using Lipofectamine (Invitrogen) and transfected cells were selected under Zeocin selection. These transfected cells were further subjected to clonal selection using the limiting dilution method to obtain clonally pure populations of HEK cells transfected the Luciferase reporter construct. Only those clones were selected in which ligand independent induction of luciferase was minimal.
(§2) 5×10^5 clonally selected HEK293T-hSTING-Luciferase cells were seeded in 384-well plates in growth medium and stimulated with novel compounds. After 20 hr of stimulation supernatant were removed and secretary reporter gene activity were measured using the Quanti-Luc detection system (Invivogen) on a Spectramax i3X luminometer.
(§3) In the tables below, EC50 value ranges for exemplary compounds are given.
(§4) Single nucleotide polymorphisms of human STING have been described, which can affect the functional potency of compounds that modulate the activity of the STING protein (see Yi et. al., PLoS One, October 2013, 8(10), e77846). The 5 major polymorphisms of human STING are shown in FIG. 1, with their prevalence in human populations indicated.
(§5) The tables below show the potency of selected compounds of the invention against the most common polymorphisms.

[1] = target: cynomolgus monkey STING protein (Macaca fascicularis, UniProt A0A2R3XZA6); assay: Luciferase reporter assay, cynomolgus monkey STING overexpressed in HEK293T cells; type: cell-based; conditions: cynomolgus monkey STING overexpressed in HEK293T cells; read-out: Cynomolgus monkey STING activity (EC50 range)
Chain of cynomolgus monkey STING protein (A0A2R3XZA6 entry or part of it): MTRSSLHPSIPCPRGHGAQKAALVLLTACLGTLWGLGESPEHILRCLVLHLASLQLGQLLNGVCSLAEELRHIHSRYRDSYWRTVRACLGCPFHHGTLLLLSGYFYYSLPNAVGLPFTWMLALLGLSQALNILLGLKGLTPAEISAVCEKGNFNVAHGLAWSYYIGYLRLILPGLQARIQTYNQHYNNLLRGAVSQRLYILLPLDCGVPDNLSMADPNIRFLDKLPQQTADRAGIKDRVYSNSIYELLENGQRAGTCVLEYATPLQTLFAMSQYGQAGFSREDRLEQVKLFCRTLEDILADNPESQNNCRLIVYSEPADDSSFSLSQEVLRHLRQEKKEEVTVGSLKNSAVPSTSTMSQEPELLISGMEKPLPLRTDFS
Summary of the method: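 HEK293T cells overexpressing cynomolgus STING with a secreted luciferase reporter were stimulated with compound for 20 hr. Supernatant reporter activity was then measured by Quanti-Luc luminescence, and EC50 values were derived.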

IRF pathway = assay: Reporter gene expression assay in THP1-Dual cells, IRF axis (secreted Lucia luciferase); type: cell-based, human; conditions: Homo sapiens, 20 hr stimulation, EC50 range class, read-out: THP-IRF activity
Method: (§6) THP1-Dual™ cells (Invivogen) were derived from the human THP-1 monocyte cell line by stable integration of two inducible reporter constructs. As a result, THP1-Dual™ cells allow the simultaneous study of the NF-κB pathway, by monitoring the activity of secreted SEAP, and the IRF pathway, by assessing the activity of a secreted luciferase (Lucia). 5×10^5 THP1-Dual™ cells were seeded in 384-well plates in growth medium and stimulated with novel compounds. After 20 hr of stimulation supernatants were removed and reporter proteins were readily measured in the cell culture supernatant using QUANTI-Blue™ (Invivogen), a SEAP detection reagent, and QUANTI-Luc™ (Invivogen), a luciferase detection reagent on a Spectramax i3X luminometer.
(§7) EC50 value ranges for exemplary compounds tested in the above assay are given.

NF-κB pathway = assay: Reporter gene expression assay in THP1-Dual cells, NFkB axis (secreted SEAP); type: cell-based, human; conditions: Homo sapiens, 20 hr stimulation, EC50 range class, read-out: THP-NFκB activity
Method: as §6, §7

hSTING(H232) = hSTING(H232) (Homo sapiens, UniProt Q86WV6); assay: Luciferase reporter assay in HEK293T-hSTING-Luciferase cells, H232/REF polymorph; type: cell-based; conditions: H232/REF polymorph of human STING, EC50 range class
Chain of hSTING(H232) (Q86WV6 whole entry): as the sequence (Q86WV6 whole entry R71H/G230A/H232R/R293Q) above, with H71R, A230G, R232H, Q293R counted along it
Text: as §1, §2, §3, §4, §5

Chain of hSTING(R232) (Q86WV6 whole entry H232R): as the sequence (Q86WV6 whole entry R71H/G230A/H232R/R293Q) above, with H71R, A230G, Q293R counted along it

Row | SMILES | EC50 (hSTING(R232)) | EC50 (hSTING(HAQ)) | EC50 [1] | EC50 (IRF pathway) | EC50 (NF-κB pathway) | EC50 (hSTING(H232))
1 | C[C@H]1c2ccc(C(=O)NCc3c(F)cc(F)cc3F)cc2N(Cc2c(F)cccc2Cl)C(=O)N1C (single isomer, unassigned) [Example 76] | < 1 µM | < 1 µM | < 1 µM | < 1 µM | < 1 µM | < 1 µM
2 | Cc1ncc(Cl)c(CN2C(=O)N(C)[C@@H](C)c3ccc(C(=O)NCc4c(F)cc(F)cc4F)cc32)c1F [Example 77, (S)-1-((5-chloro-3-fluoro-2-methylpyridin-4-yl)methyl)-3,4-dimethyl-2-oxo-N-(2,4,6-trifluorobenzyl)-1,2,3,4-tetrahydroquinazoline-7-carboxamide] | < 1 µM | < 1 µM | < 1 µM | < 1 µM | < 1 µM | < 1 µM
3 | CC1c2ccc(C(=O)NCc3c(F)cc(F)cc3F)cc2N(Cc2c(O)cccc2F)C(=O)N1C (stereo not shown) [Example 171, 1-(2-fluoro-6-hydroxybenzyl)-3,4-dimethyl-2-oxo-N-(2,4,6-trifluorobenzyl)-1,2,3,4-tetrahydroquinazoline-7-carboxamide] |  | < 1 µM | < 1 µM | < 1 µM | < 1 µM | < 1 µM
4 | CC1c2ccc(C(=O)NCc3c(F)cc(F)cc3F)cc2N(Cc2c(F)cccc2F)C(=O)N1C (stereo not shown) [Example 206, 1-(2,6-difluorobenzyl)-3,4-dimethyl-2-oxo-N-(2,4,6-trifluorobenzyl)-1,2,3,4-tetrahydroquinazoline-7-carboxamide] |  | < 1 µM | < 1 µM | < 1 µM | < 1 µM | < 1 µM
5 | CC1c2ccc(C(=O)NCc3cc4ccccc4o3)cc2N(Cc2c(F)cccc2Cl)C(=O)N1C (stereo not shown) [Example 213, N-(benzofuran-2-ylmethyl)-1-(2-chloro-6-fluorobenzyl)-3,4-dimethyl-2-oxo-1,2,3,4-tetrahydroquinazoline-7-carboxamide] | < 1 µM | 1 to 10 µM |  | 1 to 10 µM | 1 to 10 µM | 1 to 10 µM
6 | C[C@H]1c2ccc(C(=O)NCc3c(F)cc(F)cc3F)cc2N(Cc2ncccc2F)C(=O)N1C [Example 227, (S)-1-((3-fluoropyridin-2-yl)methyl)-3,4-dimethyl-2-oxo-N-(2,4,6-trifluorobenzyl)-1,2,3,4-tetrahydroquinazoline-7-carboxamide] | < 1 µM | 1 to 10 µM |  | 1 to 10 µM | 1 to 10 µM | 1 to 10 µM
7 | CC1c2ccc(C(=O)NCc3ccc(O)cc3)cc2N(Cc2c(F)cccc2Cl)C(=O)N1C (stereo not shown) [Example 235, 1-(2-chloro-6-fluorobenzyl)-N-(4-hydroxybenzyl)-3,4-dimethyl-2-oxo-1,2,3,4-tetrahydroquinazoline-7-carboxamide] | 1 to 10 µM | 1 to 10 µM |  | > 10 µM | > 10 µM | 1 to 10 µM
8 | Cc1cc(CN2C(=O)N(C)C(C)c3ccc(C(=O)NCc4c(F)cc(F)cc4F)cc32)c(F)cn1 (stereo not shown) [Example 237, 1-((5-fluoro-2-methylpyridin-4-yl)methyl)-3,4-dimethyl-2-oxo-N-(2,4,6-trifluorobenzyl)-1,2,3,4-tetrahydroquinazoline-7-carboxamide] | < 1 µM | < 1 µM |  | 1 to 10 µM | 1 to 10 µM | < 1 µM
9 | Cc1ccc(F)c(CN2C(=O)N(C)C(C)c3ccc(C(=O)NCc4c(F)cc(F)cc4F)cc32)n1 (stereo not shown) [Example 238, 1-((3-fluoro-6-methylpyridin-2-yl)methyl)-3,4-dimethyl-2-oxo-N-(2,4,6-trifluorobenzyl)-1,2,3,4-tetrahydroquinazoline-7-carboxamide] | < 1 µM | 1 to 10 µM |  | 1 to 10 µM | 1 to 10 µM | 1 to 10 µM
10 | C[C@H]1c2ccc(C(=O)NCc3c(F)cc(F)cc3F)cc2N(Cc2ccc(N=[N+]=[N-])cc2)C(=O)N1C [Example 239, (S)-1-(4-azidobenzyl)-3,4-dimethyl-2-oxo-N-(2,4,6-trifluorobenzyl)-1,2,3,4-tetrahydroquinazoline-7-carboxamide] | < 1 µM | 1 to 10 µM |  | 1 to 10 µM | 1 to 10 µM | 1 to 10 µM
11 | C[C@H]1c2ccc(C(=O)NCc3c(F)cc(F)cc3F)cc2N(Cc2ccc(N)cc2)C(=O)N1C [Example 243, (S)-1-(4-aminobenzyl)-3,4-dimethyl-2-oxo-N-(2,4,6-trifluorobenzyl)-1,2,3,4-tetrahydroquinazoline-7-carboxamide] | 1 to 10 µM | 1 to 10 µM |  | > 10 µM | > 10 µM | 1 to 10 µM
12 | COc1cc(F)c(CNC(=O)c2ccc3c(c2)N(Cc2c(F)cccc2Cl)C(=O)N(C)[C@H]3C)c(F)c1 [Example 246, (S)-1-(2-chloro-6-fluorobenzyl)-N-(2,6-difluoro-4-methoxybenzyl)-3,4-dimethyl-2-oxo-1,2,3,4-tetrahydroquinazoline-7-carboxamide] | < 1 µM | < 1 µM |  | < 1 µM | < 1 µM | < 1 µM
13 | C[C@H]1c2ccc(C(=O)NCc3c(F)cc(O)cc3F)cc2N(Cc2c(F)cccc2Cl)C(=O)N1C [Example 252, (S)-1-(2-chloro-6-fluorobenzyl)-N-(2,6-difluoro-4-hydroxybenzyl)-3,4-dimethyl-2-oxo-1,2,3,4-tetrahydroquinazoline-7-carboxamide] | < 1 µM | < 1 µM |  | 1 to 10 µM | 1 to 10 µM | < 1 µM
14 | C[C@H]1c2ccc(C(=O)NCc3c(F)cc(F)cc3F)cc2N(Cc2c(F)cccc2NCCO)C(=O)N1C [Example 264, (S)-1-(2-fluoro-6-((2-hydroxyethyl)amino)benzyl)-3,4-dimethyl-2-oxo-N-(2,4,6-trifluorobenzyl)-1,2,3,4-tetrahydroquinazoline-7-carboxamide hydrochloride] | < 1 µM | 1 to 10 µM |  | 1 to 10 µM | 1 to 10 µM | < 1 µM
15 | C[C@H]1c2ccc(C(=O)NCc3c(F)cc(F)cc3F)cc2N(Cc2c(N)ccc(F)c2F)C(=O)N1C [Example 285, (S)-1-(6-amino-2,3-difluorobenzyl)-3,4-dimethyl-2-oxo-N-(2,4,6-trifluorobenzyl)-1,2,3,4-tetrahydroquinazoline-7-carboxamide] | < 1 µM | < 1 µM |  | < 1 µM | < 1 µM | < 1 µM
16 | COc1cc(F)c(CN2C(=O)N(C)[C@@H](C)c3ccc(C(=O)NCc4c(F)cc(F)cc4F)cc32)c(Cl)c1 [Example 293, (S)-1-(2-chloro-6-fluoro-4-methoxybenzyl)-3,4-dimethyl-2-oxo-N-(2,4,6-trifluorobenzyl)-1,2,3,4-tetrahydroquinazoline-7-carboxamide] | < 1 µM | < 1 µM |  | < 1 µM | < 1 µM | < 1 µM
